Test results reported in ChEMBL document CHEMBL5579795, “Therapeutic potential of Coumarin-polyphenolic acid hybrids in PD: Inhibition of α-Syn aggregation and disaggregation of preformed fibrils, leading to reduced neuronal inclusion formation” (Bioorg Med Chem Lett, 2024).

Assays:
Alpha-synuclein = Alpha-synuclein (Homo sapiens, UniProt P37840); experiment: Inhibition of alpha-Synuclein (unknown origin) aggregation assessed as aggregation inhibition ratio measured after 72 hrs by Thioflavin T based fluorescence assay
[1] = Cytotoxicity against rat PC-12 cells assessed as cell viability at 100 uM measured after 24 hrs by CCK-8 assay (reference value: 100%); format: toxicity, cell-based; conditions: read-out: Activity

| Structure (SMILES) | IC50 (Alpha-synuclein) | viability at 24 h, 100 µM [1] |
| --- | --- | --- |
| Oc1cc(O)c2c(c1)O[C@H](c1cc(O)c(O)c(O)c1)[C@H](O)C2 [EPIGALLOCATECHIN] | 2.58 µM | – |
| O=C(Nc1ccc2oc(=O)ccc2c1)c1cc(O)ccc1O | – | > 80% |
| O=C(/C=C/c1cc(O)ccc1O)Nc1ccc2oc(=O)c(NC(=O)/C=C/c3cc(O)ccc3O)cc2c1 | – | > 90% |
| O=C(/C=C/c1cc(O)ccc1O)Nc1ccc2oc(=O)ccc2c1 | – | > 90% |
| O=C(/C=C/c1cc(O)c(O)c(O)c1)Nc1ccc2oc(=O)ccc2c1 | – | > 90% |
